In PubChem BioAssay AID493075 (Broad Institute, 2011):
Calls of active or inactive are those of the source.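 Rule for the calls: active = luminescence drop in every repeat test, with half-maximal concentration at most ten times the top dose; inconclusive = repeat tests disagree; inactive = inactive in every repeat test.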

Tested on: Vibrio harveyi JMH597 AI-2 quorum sensing luminescence, 9 h
Test: inhibitors of AI-2 quorum sensing in V. harveyi, dose response, LuxS, LuxPQ, dry powder, set 3 (AID 493075)
Settings: not given

Question: With `CCc1ccc(S(=O)(=O)Nc2ccc(Br)cn2)cc1` as the compound, how does the AC50 read?
Answer: 3.67 µM

Question: For `O=C1C=C/C(=C/Br)O1`, which AC50 is on record?
Answer: 3.78 µM

Question: For `O=S(=O)(Nc1cccnc1)c1ccc(Oc2ccccc2)cc1`, which AC50 is on record?
Answer: 0.627 µM

Question: For `C=Cn1c(C(=O)O)ccc1-c1ccc(OC)cc1`, which AC50 is on record?
Answer: 8.59 µM

Question: With `C[C@@H]1CN([C@H](C)CO)C(=O)c2ccccc2-c2ccccc2CO[C@@H]1CN(C)Cc1ccc(Oc2ccccc2)cc1` as the compound, how does the AC50 read?
Answer: 12.7 µM

Question: With `C=Cn1c(C(=O)O)ccc1-c1ccc(Cl)cc1` as the compound, how does the AC50 read?
Answer: 4.97 µM

Question: With `CCc1ccc(-c2ccc(C(=O)O)n2C)cc1` as the compound, how does the AC50 read?
Answer: 4.46 µM

Question: With `C[C@H](CO)N1C[C@H](C)[C@@H](CN(C)Cc2ccc3c(c2)OCO3)Oc2c(NC(=O)NC3CCCCC3)cccc2C1=O` as the compound, how does the AC50 read?
Answer: 7.05 µM

Tested on: not listed separately
Test: as above
Settings: Vibrio harveyi JMH597 AI-2 quorum sensing luminescence, 9 h; at 16 µM (top of the series)

Question: Which activity change, negative = inhibition does the source give for `C=Cn1c(C(=O)O)ccc1-c1cccs1` here?
Answer: 1.45% (inactive)

Question: Which activity change, negative = inhibition does the source give for `Cc1ccc(S(=O)(=O)Nc2ccc3c(c2)C(=O)N([C@H](C)CO)C[C@H](C)[C@@H](CN(C)Cc2ccc(C(F)(F)F)cc2)O3)cc1` here?
Answer: -11% (inactive)

Question: Which activity change, negative = inhibition does the source give for `C[C@@H]1CCCCO[C@@H](CN(C)Cc2ccc(C(=O)O)cc2)[C@H](C)CN([C@H](C)CO)C(=O)c2cc(NC(=O)CCCN(C)C)ccc2O1` here?
Answer: -4.89% (inactive)

Question: For `C[C@H](CO)N1C[C@H](C)[C@H](CN(C)Cc2ccc(C(=O)O)cc2)Oc2ncc(-c3ccc(C(=O)N(C)C)cc3)cc2C1=O`, which activity change, negative = inhibition is on record?
Answer: 24.5% (inactive)

Question: With `CNC[C@@H]1Oc2ccc(NC(=O)C3CCCCC3)cc2CC(=O)N([C@@H](C)CO)C[C@H]1C` as the compound, how does the activity change, negative = inhibition read?
Answer: -5.97% (inactive)

Question: With `C[C@@H]1CN([C@@H](C)CO)C(=O)Cc2cc(NC(=O)CCN3CCOCC3)ccc2O[C@H]1CN(C)C(=O)Nc1ccc(C(F)(F)F)cc1` as the compound, how does the activity change, negative = inhibition read?
Answer: -2.52% (inactive)

Question: For `C[C@@H]1CN([C@@H](C)CO)C(=O)Cc2cc(NC(=O)CCN3CCOCC3)ccc2O[C@H]1CN(C)C(=O)Nc1ccc(F)cc1`, which activity change, negative = inhibition is on record?
Answer: -10.1% (inactive)

Question: Which activity change, negative = inhibition does the source give for `C[C@@H]1CCCCO[C@@H](CN(C)C(=O)Nc2ccc(C(F)(F)F)cc2)[C@H](C)CN([C@@H](C)CO)C(=O)c2cc(NC(=O)CCC(F)(F)F)ccc2O1` here?
Answer: -7.66% (inactive)

Question: With `Cc1ccc(S(=O)(=O)Nc2ccc3c(c2)CC(=O)N([C@@H](C)CO)C[C@@H](C)[C@H](CN(C)C(=O)Nc2ccc(F)cc2)O3)cc1` as the compound, how does the activity change, negative = inhibition read?
Answer: -1.6% (inactive)

Question: With `C[C@@H]1CCCCO[C@@H](CN(C)Cc2ccncc2)[C@H](C)CN([C@H](C)CO)C(=O)c2cc(NC(=O)C3CCCCC3)ccc2O1` as the compound, how does the activity change, negative = inhibition read?
Answer: 0.341% (inactive)

Question: Which activity change, negative = inhibition does the source give for `C[C@H](CO)N1C[C@H](C)[C@@H](CN(C)C(=O)Nc2ccc(C(F)(F)F)cc2)Oc2ccc(NC(=O)Nc3ccc4c(c3)OCO4)cc2C1=O` here?
Answer: -5.58% (inactive)

Question: With `O=S(=O)(Nc1ccccn1)c1ccccc1` as the compound, how does the activity change, negative = inhibition read?
Answer: -0.42% (inactive)

Question: With `C[C@@H]1CN([C@@H](C)CO)C(=O)Cc2cc(NC(=O)CCCN(C)C)ccc2O[C@H]1CN(C)CC1CCCCC1` as the compound, how does the activity change, negative = inhibition read?
Answer: 5.19% (inactive)

Question: With `C[C@@H]1CN([C@H](C)CO)C(=O)c2cccc(NC(=O)Nc3ccc(C(F)(F)F)cc3)c2O[C@@H]1CN(C)C(=O)Nc1ccc(C(F)(F)F)cc1` as the compound, how does the activity change, negative = inhibition read?
Answer: -16.5% (inactive)

Question: For `C[C@H]1CN([C@@H](C)CO)C(=O)c2cc(NC(=O)Nc3ccc4c(c3)OCO4)ccc2O[C@@H]1CN(C)C(=O)Nc1ccc(C(F)(F)F)cc1`, which activity change, negative = inhibition is on record?
Answer: -5.41% (inactive)

Question: Which activity change, negative = inhibition does the source give for `C[C@@H]1CCCCO[C@@H](CN(C)C(=O)Nc2cccc3ccccc23)[C@H](C)CN([C@H](C)CO)C(=O)c2cc(NC(=O)CCC(F)(F)F)ccc2O1` here?
Answer: -4.12% (inactive)
